Values joined by “and” are separate entries in the source; they are usually repeats but may differ in a detail not shown here. Identical values can stand only once.
Experiments:
[1] = Colour strength on storage of pigment powder, tested in alkyd paint system; type: physicochemical
Protocol: The dried pigments are incorporated in a conventional manner into an alkyd paint system (SORBAL®P470, an alkyd resin ex DSM resins Ltd. having a solids content of 70%, white spirit, pigment and driers solution).
The dried powders are each divided into two portions. One portion is tested in the paint system immediately after drying. […] The tinting strengths are assessed visually and instrumentally.
The values correspond to the instrumentally-measured colour strength for the same pigment content in the paint.

[2] = test system: mixed culture of Gram-positive cocci, Gram-negative cocci, Gram-positive rods and Gram-negative rods; assay: Microbial contamination of dried Pigment Yellow 74 powder (Example 1 procedure) after mixing filter cake with bacterial culture; type: cell-based, bacteria; conditions: PY74, 3 parts dibutyl sebacate, plate 30° C. 48 hours
Protocol: (§1) Susceptibility to microbial contamination is assessed according to the following procedure:
(§2) Microbial contamination is assessed using individual bacteria of the morphological types, Gram-positive cocci, Gram-negative cocci, Gram-positive rods and Gram-negative rods which are maintained on Nutrient Agar slopes. When required, each is cultured in Nutrient broth at 30° C. until an organism count of >10^8 colony-forming units (cfu) per milliliter (ml) is reached. The individual cultures are then mixed in equal proportions to provide a mixed culture which is then used immediately.
(§3) 23.3 parts of acetic acid (80%) are added to a solution of 55 parts of acetoacet-o-anisidide dissolved in a solution of 25.5 parts of sodium hydroxide (47%) in 450 parts of water at a temperature of 0° C. The resultant slurry is reacted with 42.5 parts of p-nitro-o-anisidine previously diazotised with 45.4 parts of sodium nitrite (37%) and 56 parts of hydrochloric acid (36%) in the usual manner with simultaneous addition of sodium hydroxide solution (10%) to maintain pH 5.5-6.0. To the coupled slurry are then added 3 parts of dibutyl sebacate and 1 part of dimethylbenzyl-C12-14alkylammonium chloride (100% active) and the mixture is heated to a temperature of 100° C. and maintained at this temperature for one hour. The product is then filtered and washed with water under vacuum to remove soluble salts. The filter cake(still under vacuum suction) is mixed with a bacterial culture (10 ml of culture diluted to 100 ml with water)and vacuum suction is maintained until no further liquid emanates from the filter cake. The filter cake, without further washing, is then dried and converted to a powder by grinding. The powder is then passed through a 150 micron sieve.
The procedure described in Example 1 is repeated, but varying the type of biocide and amount of biocide used. The procedure for determining the extent of microbial contamination is as follows:
(§4) 10 mg of the sieved powder and one drop of sterile water are evenly spread on a Nutrient Agar plate with a glass spreader under aseptic conditions and the plate incubated at 30° C. for 48 hours, The number of bacterial colonies evident on each plate are then counted and expressed as the number of colony-forming units per gram (cfu/g).

[3] = test system: mixed culture of Gram-positive cocci, Gram-negative cocci, Gram-positive rods and Gram-negative rods; assay: Microbial contamination of dried Pigment Yellow 65 powder (Example 2 procedure) after mixing filter cake with bacterial culture; type: cell-based, bacteria
Protocol: as §1, §2, §4
as §3, with “(100%)” for “(80%)”, “o-nitro-p-anisidine” for “p-nitro-o-anisidine”, “cake (still” for “cake(still”, “water) and” for “water)and”
The procedure described in Example 2 is repeated, but varying the type of biocide and amount of biocide used.
The procedure described in Example 2 is repeated, but varying the type of biocide and amount of biocide used and omitting the DBS.

[4] = test system: mixed culture of Gram-positive cocci, Gram-negative cocci, Gram-positive rods and Gram-negative rods; assay: Microbial contamination of dried Pigment Yellow 13 powder (Example 5 procedure) after mixing filter cake with bacterial culture; type: cell-based, bacteria; conditions: PY13, no DBS
Protocol: as §1, §2, §4
A solution of 8.9 parts of acetic acid (100%) and 15 parts hydrochloric acid (36%) in 100 parts water are added to a solution of 63 parts of acetoacet-m-xylidide dissolved in a solution of 25.2 parts of sodium hydroxide (50%) in 676 parts of water at a temperature of 20° C. The resultant slurry is reacted with 36.9 parts of a previously tetrazotised solution of 3,3′-dichlorobenzidine, with simultaneous addition of sodium hydroxide solution (10%) to maintain pH 4.5-5.5. […] The product is then filtered and washed with water under vacuum to remove soluble salts. The filter cake (still under vacuum suction) is mixed with a bacterial culture (10 ml of culture diluted to 100 ml with water) and vacuum suction is maintained until no further liquid emanates from the filter cake. The filter cake, without further washing, is then dried and converted to a powder by grinding. The powder is then passed through a 150 micron sieve.

[5] = PY65, with 3 parts dibutyl sebacate, 0.5 parts biocide
[6] = PY65, with 3 parts dibutyl sebacate, 1.0 parts biocide
[7] = PY65, with 3 parts dibutyl sebacate, 3.0 parts biocide
[8] = PY65, with 3 parts dibutyl sebacate, 5.0 parts biocide
[9] = PY65, omitting the DBS, 0.5 parts biocide
[10] = PY65, omitting the DBS, 1.0 parts biocide
[11] = PY65, omitting the DBS, 3.0 parts biocide
[12] = PY65, omitting the DBS, 5.0 parts biocide

Compound	loss of strength ([1]; initial versus last storage time at ambient temperature)	amount of Pigment required, 3 weeks ([1]; powder stored at ambient temperature 3 weeks)	amount of Pigment required, 6 weeks ([1]; powder stored at ambient temperature 6 weeks)	colour strength, initial ([1]; powder tested immediately after drying, instrumentally-measured colour strength)	microbial contamination, colony-forming units per gram ([2]; 0.5 parts biocide)	microbial contamination, colony-forming units per gram ([2]; 1.0 parts biocide)	microbial contamination, colony-forming units per gram ([2]; 3.0 parts biocide)	microbial contamination, colony-forming units per gram ([2]; 5.0 parts biocide)	microbial contamination, colony-forming units per gram [3, 5]	microbial contamination, colony-forming units per gram [3, 6]	microbial contamination, colony-forming units per gram [3, 7]	microbial contamination, colony-forming units per gram [3, 8]	microbial contamination, colony-forming units per gram [3, 9]	microbial contamination, colony-forming units per gram [3, 10]	microbial contamination, colony-forming units per gram [3, 11]	microbial contamination, colony-forming units per gram [3, 12]	microbial contamination, colony-forming units per gram ([4]; 0.5 parts biocide)	microbial contamination, colony-forming units per gram ([4]; 1.0 parts biocide)	microbial contamination, colony-forming units per gram ([4]; 3.0 parts biocide)	microbial contamination, colony-forming units per gram ([4]; 5.0 parts biocide)
COc1cc([N+](=O)[O-])ccc1/N=N/C(C(C)=O)C(=O)Nc1ccccc1OC (centres unmarked) [C.I. Pigment Yellow 74]	36 and 26 and 42	105 and 104	105 and 108	141 and 134 and 146																
CCCCn1sc2ccccc2c1=O [DN, n-Butylbenzisothiazolin-3-one]					>10^4 cfu/g	>10^4 cfu/g	>10^3 cfu/g	0 cfu/g	>10^4 cfu/g	>10^4 cfu/g	>10^4 cfu/g	8.0 × 10^2 cfu/g								
O=c1[nH]sc2ccccc12 [LV, 1,2-Benzisothiazolin-3-one]					>10^5 cfu/g	>10^5 cfu/g	>10^5 cfu/g	>10^5 cfu/g	>10^4 cfu/g	>10^4 cfu/g	>10^4 cfu/g	>10^4 cfu/g	>10^4 cfu/g	>10^4 cfu/g	>10^4 cfu/g	>10^4 cfu/g	3.0 × 10^3 cfu/g	4.0 × 10^2 cfu/g	1.0 × 10^2 cfu/g	6.0 × 10^2 cfu/g
Cn1sccc1=O [MIT, Methylisothiazolin-3-one]					8.0 × 10^3 cfu/g	1.0 × 10^4 cfu/g	3.0 × 10^3 cfu/g	1.0 × 10^4 cfu/g	>10^4 cfu/g	>10^3 cfu/g	>10^3 cfu/g	0 cfu/g	>10^5 cfu/g	>10^5 cfu/g	>10^5 cfu/g	>10^5 cfu/g	>10^4 cfu/g	4.0 × 10^3 cfu/g		9.0 × 10^2 cfu/g
CCCCCCCCn1sccc1=O [OTW, n-Octylisothiazolin-3-one]					>10^4 cfu/g	2.0 × 10^4 cfu/g	>10^4 cfu/g	1.4 × 10^3 cfu/g	>10^4 cfu/g	>10^4 cfu/g	>10^4 cfu/g	0 cfu/g	>10^4 cfu/g	>10^4 cfu/g	>10^3 cfu/g	>10^3 cfu/g	>10^4 cfu/g	5.0 × 10^3 cfu/g	0 cfu/g	0 cfu/g
Benzyldimethyl-C16-18-alkylammonium chloride [DMHTB]					>10^4 cfu/g	0 cfu/g	0 cfu/g	0 cfu/g												
Dimethyl-di-C12-14-alkylammonium chloride [Example 2C-75]					8.0 × 10^4 cfu/g	0 cfu/g	0 cfu/g	0 cfu/g												
Methylbenzyl-di-C16-18-alkylammonium chloride [Example M2HTB]					>10^4 cfu/g	0 cfu/g	0 cfu/g	0 cfu/g												
Methylbis-(2-hydroxyethyl)-C12-14-alkylammonium chloride [EthO-12]					>10^4 cfu/g	0 cfu/g	0 cfu/g	0 cfu/g												
Tetrakishydroxymethylphosphonium sulphate [THPS]					>10^5 cfu/g	>10^5 cfu/g	>10^5 cfu/g	>10^5 cfu/g	>10^5 cfu/g	>10^5 cfu/g	>10^5 cfu/g	>10^5 cfu/g	>10^5 cfu/g	>10^5 cfu/g	>10^5 cfu/g	>10^5 cfu/g	>10^4 cfu/g	>10^4 cfu/g	>10^4 cfu/g	>10^4 cfu/g
Trimethyl-di-C12-14-alkylammonium chloride [Example C-35]					>10^4 cfu/g	4.5 × 10^3 cfu/g	0 cfu/g	0 cfu/g												

— patent US6361595B1, “Process for the preparation of pigment compositions” (Ciba Specialty Chemicals Corporation, priority 1999, dated 2002)
